Measured values published in patent US11180462B2, “Microbiocidal oxadiazole derivatives” (SYNGENTA PARTICIPATIONS AG, priority 2015, dated 2021).

Assays:
[1] = test system: Glomerella lagenarium (Colletotrichum lagenarium); test: Fungicidal activity against Glomerella lagenarium (Colletotrichum lagenarium) liquid culture / cucumber / preventative (anthracnose); assay type: cell-based; conditions: Colletotrichum orbiculare; 20 ppm in the applied formulation; liquid culture (PDB), growth inhibition measured photometrically after 3 to 4 days; compared to untreated control; read-out: disease control
Procedure, shortened: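 Photometric read-out of fungal growth after 2–7 days, expressed as percent antifungal activity versus untreated check. Cryo-stored conidia in PDB; compound at 20 ppm; dark, 24 °C, 96% RH.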

[2] = test system: Puccinia recondita f. Sp. Tritici; test: Fungicidal activity against Puccinia recondita f. sp. tritici / wheat / leaf disc preventative (brown rust); assay type: in vivo; conditions: foliar, 200 ppm in the applied formulation, wheat leaf segments, preventative, compared to untreated control leaf disks, read-out: disease control
Procedure, shortened: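 Preventative leaf-segment test, wheat cv. Kanzler on water agar. Spray compound at 200 ppm, inoculate with spores 1 day later; 19° C., 75% rh, 12/12 h light. Read-out: % disease control vs untreated, 7 to 9 days after application.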

Phakopsora Pachyrhizi = test: Fungicidal activity against Phakopsora pachyrhizi / soybean / leaf disc preventative (Asian soybean rust); assay type: in vivo; conditions: foliar, 200 ppm in the applied formulation, soybean leaf disks, compared to untreated control leaf disks, read-out: disease control
Description: Leaf disks or leaf segments of various plant species are cut from plants grown in a greenhouse. The cut leaf disks or segments are placed in multiwell plates (24-well format) onto water agar. The leaf disks are sprayed with a test solution before (preventative) or after (curative) inoculation. Compounds to be tested are prepared as DMSO solutions (max. 10 mg/ml) which are diluted to the appropriate concentration with 0.025% Tween20 just before spraying. The inoculated leaf disks or segments are incubated under defined conditions (temperature, relative humidity, light, etc.) according to the respective test system. A single evaluation of disease level is carried out 3 to 14 days after inoculation, depending on the pathosystem. Percent disease control relative to the untreated check leaf disks or segments is then calculated.
Fungicidal Activity Against Phakopsora Pachyrhizi Soybean/Leaf Disc Preventative (Asian Soybean Rust)
Soybean leaf disks are placed on water agar in multiwell plates (24-well format) and sprayed with the formulated test compound diluted in water. One day after application leaf discs are inoculated by spraying a spore suspension on the lower leaf surface. After an incubation period in a climate cabinet of 24-36 hours in darkness at 20° C. and 75% rh leaf disc are kept at 20° C. with 12 h light/day and 75% rh. The activity of a compound is assessed as percent disease control compared to untreated when an appropriate level of disease damage appears in untreated check leaf disks (12 to 14 days after application).
The following compounds at 200 ppm in the applied formulation give at least 80% disease control in this test when compared to untreated control leaf disks under the same conditions, which show extensive disease development.

SMILES | inhibition of growth at 20 ppm [1] | pest or weed control at 200 ppm [2] | pest or weed control at 200 ppm (Phakopsora Pachyrhizi)
O=C(CC1CC1)N(Cc1ccc(-c2noc(C(F)(F)F)n2)cc1)CC1CCCO1 (stereo not drawn) [Compound 1.418, 2-cyclopropyl-N-(tetrahydrofuran-2-ylmethyl)-N-[[4-[5-(trifluoromethyl)-1,2,4-oxadiazol-3-yl]phenyl]methyl]-acetamide] | ≥ 80% | ≥ 80% | ≥ 80%
CC(C)CC(=O)N(Cc1ccc(-c2noc(C(F)(F)F)n2)cc1)CC1CC1 [Compound 1.218, N-(cyclopropylmethyl)-3-methyl-N-[[4-[5-(trifluoromethyl)-1,2,4-oxadiazol-3-yl]phenyl]methyl]-butanamide] | ≥ 80% | ≥ 80% | ≥ 80%
CCCCCC(=O)N(Cc1ccc(-c2noc(C(F)(F)F)n2)cc1)C1CC1 [Compound 1.93, N-cyclopropyl-N-[[4-[5-(trifluoromethyl)-1,2,4-oxadiazol-3-yl]phenyl]methyl]-hexanamide] | ≥ 80% | ≥ 80% | ≥ 80%
CCC(C)C(=O)N(CCO)Cc1ccc(-c2noc(C(F)(F)F)n2)cc1 (stereo not drawn) [Compound 1.720, N-(2-hydroxyethyl)-2-methyl-N-[[4-[5-(trifluoromethyl)-1,2,4-oxadiazol-3-yl]phenyl]methyl]-butanamide] | ≥ 80% | ≥ 80% | ≥ 80%
CC(=O)N(CCO)Cc1ccc(-c2noc(C(F)(F)F)n2)cc1 [Compound 1.735, N-(2-hydroxyethyl)-N-[[4-[5-(trifluoromethyl)-1,2,4-oxadiazol-3-yl]phenyl]methyl]-acetamide] | ≥ 80% | ≥ 80% | ≥ 80%
N#CCC(=O)N(CCO)Cc1ccc(-c2noc(C(F)(F)F)n2)cc1 [Compound 1.728, 2-cyano-N-(2-hydroxyethyl)-N-[[4-[5-(trifluoromethyl)-1,2,4-oxadiazol-3-yl]phenyl]methyl]-acetamide] |  | ≥ 80% | ≥ 80%
O=C(C1CCCCC1)N(Cc1ccc(-c2noc(C(F)(F)F)n2)cc1)C1CC1 [Compound 1.90, N-cyclopropyl-N-[[4-[5-(trifluoromethyl)-1,2,4-oxadiazol-3-yl]phenyl]methyl]-cyclohexane-carboxamide] | ≥ 80% | ≥ 80% | ≥ 80%
O=C(c1ccccc1Cl)N(CCO)Cc1ccc(-c2noc(C(F)(F)F)n2)cc1 [Compound 1.709, 2-chloro-N-(2-hydroxyethyl)-N-[[4-[5-(trifluoromethyl)-1,2,4-oxadiazol-3-yl]phenyl]methyl]-benzamide] | ≥ 80% | ≥ 80% | ≥ 80%
CCC(C)(CC)C(=O)N(Cc1ccc(-c2noc(C(F)(F)F)n2)cc1)C1CC1 [Compound 1.135, N-cyclopropyl-2-ethyl-2-methyl-N-[[4-[5-(trifluoromethyl)-1,2,4-oxadiazol-3-yl]phenyl]methyl]-butanamide] | ≥ 80% | ≥ 80% | ≥ 80%
COCCCC(=O)N(Cc1ccc(-c2noc(C(F)(F)F)n2)cc1)CC1CC1 [Compound 1.238, N-(cyclopropylmethyl)-4-methoxy-N-[[4-[5-(trifluoromethyl)-1,2,4-oxadiazol-3-yl]phenyl]methyl]-butanamide] | ≥ 80% | ≥ 80% | ≥ 80%
CC(C)(C)OC(=O)ON(Cc1ccc(-c2noc(C(F)(F)F)n2)cc1)C(=O)OC(C)(C)C [Compound 2.21, [tert-butoxycarbonyl-[[4-[5-(trifluoromethyl)-1,2,4-oxadiazol-3-yl]phenyl]methyl]-amino]tert-butyl carbonate] | ≥ 80% | ≥ 80% | ≥ 80%
C#CCN(Cc1ccc(-c2noc(C(F)(F)F)n2)cc1)C(=O)Cc1ccc(C#N)cc1 [Compound 1.193, 2-(4-cyanophenyl)-N-prop-2-ynyl-N-[[4-[5-(trifluoromethyl)-1,2,4-oxadiazol-3-yl]phenyl]methyl]-acetamide] | ≥ 80% | ≥ 80% | ≥ 80%
O=C(C1CC1F)N(Cc1ccc(-c2noc(C(F)(F)F)n2)cc1)Cc1ccco1 (stereo not drawn) [Compound 1.471, 2-fluoro-N-(2-furylmethyl)-N-[[4-(5-(trifluoromethyl)-1,2,4-oxadiazol-3-yl]phenyl]methyl]-cyclopropane-carboxamide] | ≥ 80% | ≥ 80% | ≥ 80%
C#CCC(NS(=O)(=O)CC)C(=O)N(Cc1ccc(-c2noc(C(F)(F)F)n2)cc1)OC (stereo not drawn) [Compound 1.60, 2-(ethylsulfonylamino)-N-methoxy-N-[[4-[5-(trifluoromethyl)-1,2,4-oxadiazol-3-yl]phenyl]methyl]-pent-4-ynamide] |  | ≥ 80% | ≥ 80%
O=C(c1ccccc1Cl)N(Cc1ccc(-c2noc(C(F)(F)F)n2)cc1)CC(F)(F)F [Compound 1.691, 2-chloro-N-(2,2,2-trifluoroethyl)-N-[[4-[5-(trifluoromethyl)-1,2,4-oxadiazol-3-yl]phenyl]methyl]-benzamide] | ≥ 80% |  | ≥ 80%
CCCCON(Cc1ccc(-c2noc(C(F)(F)F)n2)cc1)C(=O)C1CCCO1 (stereo not drawn) [Compound 1.644, N-butoxy-N-[[4-[5-(trifluoromethyl)-1,2,4-oxadiazol-3-yl]phenyl]methyl]-tetrahydrofuran-2-carboxamide] | ≥ 80% |  | ≥ 80%
CCCCON(Cc1ccc(-c2noc(C(F)(F)F)n2)cc1)C(=O)CC(F)(F)F [Compound 1.648, N-butoxy-3,3,3-trifluoro-N-[[4-[5-(trifluoromethyl)-1,2,4-oxadiazol-3-yl]phenyl]methyl]-propanamide] | ≥ 80% |  | ≥ 80%
CCCCON(Cc1ccc(-c2noc(C(F)(F)F)n2)cc1)C(=O)CCCOC [Compound 1.643, N-butoxy-4-methoxy-N-[[4-[5-(trifluoromethyl)-1,2,4-oxadiazol-3-yl]phenyl]methyl]-butanamide] | ≥ 80% |  | ≥ 80%
CCCCON(Cc1ccc(-c2noc(C(F)(F)F)n2)cc1)C(C)=O [Compound 1.649, N-butoxy-N-[[4-[5-(trifluoromethyl)-1,2,4-oxadiazol-3-yl]phenyl]methyl]-acetamide] | ≥ 80% |  | ≥ 80%
CC1CC1C(=O)N(Cc1ccc(-c2noc(C(F)(F)F)n2)cc1)CC(F)(F)F (stereo not drawn) [Compound 1.695, 2-methyl-N-(2,2,2-trifluoroethyl)-N-[[4-[5-(trifluoromethyl)-1,2,4-oxadiazol-3-yl]phenyl]methyl]-cyclopropane-carboxamide] | ≥ 80% |  | ≥ 80%
O=C(ON(Cc1ccc(-c2noc(C(F)(F)F)n2)cc1)C(=O)c1ccccc1Cl)c1ccccc1Cl [Compound 1.755, [(2-chlorobenzoyl)-[[4-[5-(trifluoromethyl)-1,2,4-oxadiazol-3-yl]phenyl]methyl]-amino] 2-chlorobenzoate] | ≥ 80% |  | ≥ 80%
CCON(Cc1ccc(-c2noc(C(F)(F)F)n2)cc1)C(=O)CC1CC1 [Compound 1.632, 2-cyclopropyl-N-ethoxy-N-[[4-[5-(trifluoromethyl)-1,2,4-oxadiazol-3-yl]phenyl]methyl]-acetamide] | ≥ 80% |  | ≥ 80%
CCCCON(Cc1ccc(-c2noc(C(F)(F)F)n2)cc1)C(=O)C1CC1(F)F (stereo not drawn) [Compound 1.634, N-butoxy-2,2-difluoro-N-[[4-[5-(trifluoromethyl)-1,2,4-oxadiazol-3-yl]phenyl]methyl]-cyclopropane-carboxamide] | ≥ 80% |  | ≥ 80%
C#CCN(Cc1ccc(-c2noc(C(F)(F)F)n2)cc1)C(=O)C1CC1c1ccccc1 (stereo not drawn) [Compound 1.166, 2-phenyl-N-prop-2-ynyl-N-[[4-[5-(trifluoromethyl)-1,2,4-oxadiazol-3-yl]phenyl]methyl]-cyclopropane-carboxamide] | ≥ 80% |  | ≥ 80%
